Laboratory results reported in ChEMBL document CHEMBL1133328, “Heterocyclic bibenzimidazole derivatives as topoisomerase I inhibitors” (Bioorg Med Chem Lett, 2000).

How the values were obtained:
[1] = target: T1, DNA topoisomerase 1 (Homo sapiens) (UniProt P11387); test: Relative effective concentration that produces the same degree of cleavage on the plasmid DNA in the presence of human topoisomerase-1
T1 sequence (whole entry): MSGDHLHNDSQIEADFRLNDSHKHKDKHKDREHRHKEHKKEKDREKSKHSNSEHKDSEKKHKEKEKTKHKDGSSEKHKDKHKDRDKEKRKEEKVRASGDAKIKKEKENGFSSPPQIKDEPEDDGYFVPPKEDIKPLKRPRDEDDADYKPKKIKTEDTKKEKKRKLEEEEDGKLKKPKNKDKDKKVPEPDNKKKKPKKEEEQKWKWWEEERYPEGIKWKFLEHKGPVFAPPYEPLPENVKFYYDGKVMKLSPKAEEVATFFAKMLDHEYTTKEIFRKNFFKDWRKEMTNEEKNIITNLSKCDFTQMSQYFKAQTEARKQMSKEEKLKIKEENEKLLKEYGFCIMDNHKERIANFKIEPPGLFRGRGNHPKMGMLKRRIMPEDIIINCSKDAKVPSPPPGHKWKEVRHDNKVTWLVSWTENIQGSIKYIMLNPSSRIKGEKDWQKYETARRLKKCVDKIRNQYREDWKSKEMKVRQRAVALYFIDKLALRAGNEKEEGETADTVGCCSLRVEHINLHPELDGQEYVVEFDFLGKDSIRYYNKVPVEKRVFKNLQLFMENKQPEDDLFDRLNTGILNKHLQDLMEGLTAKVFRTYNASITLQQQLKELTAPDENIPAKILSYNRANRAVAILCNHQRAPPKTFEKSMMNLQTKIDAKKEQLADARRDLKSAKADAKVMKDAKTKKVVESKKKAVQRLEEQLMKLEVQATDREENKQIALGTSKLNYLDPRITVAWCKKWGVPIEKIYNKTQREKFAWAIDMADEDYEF

[2] = test system: Nucleic Acid; test: Compound-poly(dA).poly(dT) association constant at the melting temperature (80 degree C) of the compound-DNA complex was determined; format: nucleic-acid assay
[3] = test system: Nucleic Acid; test: Compound-poly(dA).poly(dT) association constant at the melting temperature (81.5 degree C) DNA complex was determined; format: nucleic-acid assay
[4] = test system: Nucleic Acid; test: Compound-poly(dA).poly(dT) association constant at the melting temperature (73.4 degree C) DNA complex was determined; format: nucleic-acid assay

Structure (SMILES) | Topoisomerase-I activity [1] | K Tm [2] | K Tm [3] | K Tm [4]
c1ccc(-c2ccc3[nH]c(-c4ccc5[nH]c(-c6ccc7cc[nH]c7c6)nc5c4)nc3c2)cc1 | 5 | 1.9e+08 M⁻¹ | – | –
c1ccc(-c2ccc3[nH]c(-c4ccc5[nH]c(-c6ccc7[nH]cnc7c6)nc5c4)nc3c2)cc1 | 1 | – | 2.8e+08 M⁻¹ | –
c1ccc(-c2ccc3[nH]c(-c4ccc5[nH]c(-c6ccc7[nH]ccc7c6)nc5c4)nc3c2)cc1 | 50 | – | – | 3.5e+07 M⁻¹

Now from value to compound:

Topoisomerase-I activity [1] | K Tm [2] | K Tm [3] | K Tm [4] | Structure (SMILES)
1 | – | – | – | c1ccc(-c2ccc3[nH]c(-c4ccc5[nH]c(-c6ccc7[nH]nnc7c6)nc5c4)nc3c2)cc1
> 100 | – | – | – | c1ccc(-c2ccc3[nH]c(-c4ccc5[nH]c(-c6ccc7nccnc7c6)nc5c4)nc3c2)cc1
1 | – | – | – | Oc1nc2ccc(-c3nc4cc(-c5nc6cc(-c7ccccc7)ccc6[nH]5)ccc4[nH]3)cc2nc1O
